Data on 5 molecules can be found in patent US6605603B1, “Uses of 1-amino-3-(N,N-dimethylamino)-propylidene-1,1-bisphosphonic acid” (Gador, S.A., priority 1998, dated 2003).

Entries after “also recorded” stand apart in the source; their conditions may differ. Marks after values point to notes of the source that are not given here.

Assay [1] deals with Osteoblast-like rat osteosarcoma cells (ROS17/2.8). The experiment in a line: Intracellular calcium measurements (Fura-2 fluorimetry), with or without VDCC blockers, PLC inhibitors or thapsigargin. More on the design: Δ[Ca^2+]i: unit not given here. Format: cell-based. The following applies: for Ca^2+ response after depletion of Ca^2+ stores with thapsigargin: 1 μM thapsigargin, bisphosphonate 10 nM; for % Inhibition (decrease in Δ[Ca^2+]i) / [Ca^2+]i / Δ[Ca^2+]i: 10^−8 M; for rapid (1 min) increase in cytosolic Ca^2+ after pretreatment with PLC inhibitors: U73122 (2 μM) or neomycin (0.5 mM); for rapid (1 min) increase in cytosolic Ca^2+ after pretreatment with U73343: U73343, analogue of U73122 devoid of effect on PLC, not shown; for reduction of the induced [Ca^2+]i increase by VDCC blockers: pretreatment with nifedipine (2 μM) or verapamil (5 μM). The protocol: (§1) Osteoblast-like rat osteosarcoma cells (ROS17/2.8) were cultured as monolayers at 37° C. in Dulbecco's modified Eagle's medium (DME) containing 10% fetal bovine serum under humidified air (5.5% CO2). After 48 hours, medium was changed to DME containing 1% fetal bovine serum. Unless otherwise stated, cells were allowed to grow until confluence (4-5 days after plating).
Intracellular Ca^2+ changes were monitored by using the Ca^2+-sensitive fluorescent dye Fura-2 as previously described (Vasquez et al., 1998, J. Biol. Chem. 273, 33954-33960). Cell dye loading was achieved by incubating the cells in buffer A containing (in mM): 138 NaCl, 5 KCl, 1 MgCl2, 5 glucose, 10 HEPES (pH 7.4), 1.5 CaCl2, plus 0.1% bovine serumalbumin (BSA), 2 μM of the pentaacetoxymethylester derivative (membrane permeable) Fura-2/AM and 0.012% pluronic F-127, in the dark during 40 min at room temperature (20-25° C.) in order to minimize dye compartmentalization. Unloaded dye was washed out and cells were stored in buffer B (buffer A without BSA, Fura-2/AM and pluronic F-127) in the dark (room temperature) by at least 30 min prior to use, to allow for complete intracellular dye deesterification. For fluorescence measurements the coverslips containing dye-loaded cells were mounted into quartz cuvettes and introduced into the thermostatized (37° C.) sample compartment of a SLM Aminco 8100 spectrofluorimeter. Fura-2 intracellular fluorescence intensity was monitored at an emission wavelength of 510 nm (8 nm bandpass) by alternating with an electronically controlled chopper (300 Hz) the excitation wavelength between 340 and 390 nm employing a dual excitation monochromator at 4 nm bandpass. Signals from short and long wavelength were ratioed (R=340/390) thus making the measurement independent of variations in cellular dye content, dye leakage or photobleaching. Calibration of Fura-2 signal to calculate [Ca^2+]i values was performed for each coverslip as follows: maximal (Rmax) and minimal (Rmin) intracellular dye fluorescence signals were determined by adding 5 μM ionomycin plus 3 mM Ca^2+ and 10 mM EGTA (pH 7.0) plus 10 mM Tris-base (pH 9.0), respectively.
[Ca^2+]i=Kd(R−Rmin)/(Rmax−R)×β
where R is the ratio of Fura-2 fluorescence at the selected wavelengths, Rmax and Rmin represent ratios from Ca^2+ saturated and Ca^2+ free intracellular dye, respectively, and β is the ratio between the specific fluorescence of the Ca^2+ free and Ca^2+ bound forms of the dye at the longer wavelength (Sf2/Sb2).
Fura-2 loaded osteoblasts were treated with vehicle (buffered saline solution, Basal), OPD (10−8 M) or NH2-OPD (10^−8 M) and intracellular Ca^2+ concentration ([Ca^2+]i) was measured as described. Given are [Ca^2+]i values corresponding to the plateau phase (5 min after BP exposure; see FIG. 3) of the BP-induced Ca^2+ response. When used, both nifedipine (2 μM) and verapamil (5 μM) were added 3 min before stimulation. Data are the average of 5 independent [Ca^2−]i recordings±sd. p values (*p<0.001; **p<0.01) are given for significant differences respect to basal. Percent (%) inhibition refers to the decrease in Δ[Ca^2+]i.
Fura-2 loaded cells were treated with vehicle (buffered saline solution, Basal), OPD (10^−8 M) or NH2-OPD (10^−8 M) and intracellular Ca^2+ concentration ([Ca^2+]i) was measured as described. Unless otherwise indicated, [Ca^2+]i stimulation was evaluated at the plateau phase of the BP-induced response (see FIG. 3). When used, the PLC inhibitors U73122 (2 μM) or neomycin (0.5 mM, data in parentheses) were added into the measurement cuvette 3 min before stimulation. In the PLC-inhibition assay [Ca^2+]i values measured at 1- and 5-min. after stimulation are given. Results are expressed as percent of control (100%) to allow comparison among different assay conditions, and are the average of 3 independent experiments±sd. *p<0.001; **p<0.01. Percent (%) inhibition refers to the decrease in Δ[Ca^2+]i.

Assay [2] shares this test system. The experiment in a line: Determination of osteocalcin synthesis (radio-immunoassay of OC released into the medium). Particulars: for order of potency relative to 1,25(OH)2D3 (induction of OC synthesis): 1,25(OH)2D3 = 1.0; for effectiveness on OC synthesis compared with the steroid hormone 1,25(OH)2D3 / stimulation of OC synthesis: 72 hours incubation. It counts as cell-based. As to the method:
Cells were grown by 72 hours in the absence (control) or presence of the indicated concentrations of 1α, 25-dihydroxy-vitamin D3[1,25(OH)2D3], EHDP, APD, OPD or NH2-OPD. Then osteocalcin (OC) released into the medium was quantitated as described in Example 4. Data are the average±SD of 3 independent experiments performed by triplicate.
as §1
Osteoblasts grown by 48 hours in multiwells were changed to Dulbecco's modified Eagle's medium containing 1% fetal bovine serum plus the indicated concentration of BP, 10^−8 M 1,25(OH)2D3 (positive control), or vehicle alone, and then allowed to grow for an additional period of 72 hours. The medium from each well was collected and stored frozen at −80° C. until use for osteocalcin measurements. Osteocalcin (OC) was quantitatively measured by radio-immunoassay using a commercially avalaible kit (Osteocalcin DSL-6900, Diagnostic Systems Laboratories Inc., Webster, Tex., USA) according to manufacturer's instructions. Osteocalcin values were corrected for total cellular protein content.

The next assay has as its system bone resorption. The following applies: Van Beek E. et al., 1996, J. Bone Miner. Res. 11, 1492-1497; cited from earlier work.
The mark [3] stands for this setting: U73122 (2 μM), 1 min after stimulation.
Setting [4] is: U73122 (2 μM), 5 min after stimulation.
Setting [5] is: neomycin (0.5 mM, data in parentheses), 1 min.
Where [6] appears, read: neomycin (0.5 mM, data in parentheses), 1 min after stimulation.
[7] abbreviates: neomycin (0.5 mM, data in parentheses), 5 min.
[8] abbreviates: neomycin (0.5 mM, data in parentheses), 5 min after stimulation.
The mark [9] stands for this setting: plateau phase (5 min), nifedipine (2 μM) pretreatment.
[10] abbreviates: plateau phase (5 min), nifedipine (2 μM) pretreatment 3 min before.
Where [11] appears, read: plateau phase (5 min), no pretreatment, basal 135 ± 6.
Setting [12] is: plateau phase (5 min), no pretreatment, difference to basal.
Setting [13] is: plateau phase (5 min), verapamil (5 μM) pretreatment.
The mark [14] stands for this setting: plateau phase (5 min), verapamil (5 μM) pretreatment 3 min before.
Setting [15] is: plateau phase, no PLC inhibitor.
The mark [16] stands for this setting: plateau phase, no PLC inhibitor, difference to control (100%).

For `C=C1/C(=C\C=C2/CCC[C@]3(C)[C@@H]([C@H](C)CCCC(C)(C)O)CC[C@@H]23)C[C@@H](O)C[C@@H]1O` [1,25(OH)2D3, 1α, 25-dihydroxy-vitamin D3], the “time-to-peak of cytosolic Ca^2+ change” value in assay [1] (10 nM) turned out to be 90 s. Besides, in assay [2] (10^−8 M, 72 hours), the “release of OC into the culture medium increased respect to control, untreated cells” value was determined as 100% and the “order of potency relative to 1,25(OH)2D3 (induction of OC synthesis)” value (“order of potency relative to 1,25(OH)2D3” for short) was found to be 1.0.
As for `NCCC(O)(P(=O)(O)O)P(=O)(O)O` [APD, pamidronate], in assay [1] (10 nM), the “maximal change in cytosolic Ca^2+ relative to 1,25(OH)2D3” value was “less effective than the steroid” and the “time-to-peak of cytosolic Ca^2+ change” value was found to be 80 s. In assay [2] (10^−8 M, 72 hours), the “order of potency relative to 1,25(OH)2D3” value is given as 1.1. In addition, in assay [2], the “effectiveness on OC synthesis compared with the steroid hormone 1,25(OH)2D3” value is recorded as “more effective than the steroid hormone”.
With `CC(O)(P(=O)(O)O)P(=O)(O)O` [EHDP, etidronate], in assay [1] (10 nM), the “maximal change in cytosolic Ca^2+ relative to 1,25(OH)2D3” value is listed as “less effective than the steroid”; the “rate of Ca^2+ elevation, initial phase (0-2 min)” value is given as “slowest rate of Ca^2+ elevation”; the “time-to-peak of cytosolic Ca^2+ change” value came to 120 s. Besides, in assay [2] (10^−8 M, 72 hours), the “order of potency relative to 1,25(OH)2D3” value was determined as 0.85.
On to `CN(C)CCC(N)(P(=O)(O)O)P(=O)(O)O` [NH2-OPD, 1-amino-3-(N,N-dimethylamino)-propylidene-1,1-bisphosphonic acid], for which the “maximal change in cytosolic Ca^2+ relative to 1,25(OH)2D3” value in assay [1] (10 nM) was “less effective than the steroid”. The “time-to-peak of cytosolic Ca^2+ change” value in assay [1] (10 nM) is 80 s. The “Ca^2+ response after depletion of Ca^2+ stores with thapsigargin” value in assay [1] is given as “completely blocked”. Also, the “% Inhibition (decrease in Δ[Ca^2+]i)” value in assay [1] (U73122 (2 μM), 1 min) is reported as 100%; in assay [1] (U73122 (2 μM), 5 min), 100(100) %; in assay [1] (setting [5]) it was 99%; in assay [1] (setting [7]), 100(100) %; in assay [1] (setting [9]), 90%; in assay [1] (setting [13]) it was 100%. The “[Ca^2+]i” value in assay [1] (setting [3]) is 101 ± 5% of control (100%); in assay [1] (setting [4]), 100 ± 11% of control (100%); in assay [1] (setting [6]) it was 99 ± 1% of control (100%); in assay [1] (setting [8]), 100 ± 5% of control (100%); in assay [1] (setting [10]), 137 ± 6 nM; in assay [1] (setting [11]), 150 ± 3** nM. The “[Ca^2+]i” value is 133 ± 7 nM in assay [1] (setting [14]) and 137 ± 3** percent of control (100%) in assay [1] (setting [15]). Further, the “Δ[Ca^2+]i” value in assay [1] (setting [9]) turned out to be 2; in assay [1] (setting [12]) it was 15; in assay [1] (setting [16]), 37. In addition, the “rapid increase in [Ca^2+]i (time of onset)” value in assay [1] (Fura-2 loaded cells) turned out to be 60 s. The “rapid (1 min) increase in cytosolic Ca^2+ after pretreatment with PLC inhibitors” value in assay [1] was “totally blocked”. Moreover, the “rapid (1 min) increase in cytosolic Ca^2+ after pretreatment with U73343” value in assay [1] is listed as “not by U73343”. Moreover, the “reduction of the induced [Ca^2+]i increase by VDCC blockers” value in assay [1] was “almost completely abolished”. The “return of [Ca^2+]i to near basal levels after peak” value in assay [1] (transient Ca^2+ rise, down-turn phase after peak) is 1 to 2 min. Further, in assay [2] (10^−8 M, 72 hours), the “order of potency relative to 1,25(OH)2D3” value stood at 0.85. Moreover, in assay [2], the “effectiveness on OC synthesis compared with the steroid hormone 1,25(OH)2D3” value is recorded as “lower than for the secosteroid”. In assay [2], the “stimulation of OC synthesis” value is “markedly stimulated OC synthesis in a dose-dependent fashion”. The antiresorptive activity entry in the assay with bone resorption is on record as “complete loss of antiresorptive activity; also recorded: absolutely devoid of antiresorptive properties”.
In the case of `CN(C)CCC(O)(P(=O)(O)O)P(=O)(O)O` [OPD, olpadronate], the “maximal change in cytosolic Ca^2+ relative to 1,25(OH)2D3” value in assay [1] (10 nM) is given as “equipotent to the steroid”. Moreover, in assay [1] (10 nM), the “time-to-peak of cytosolic Ca^2+ change” value came to 60 s. In addition, the “Ca^2+ response after depletion of Ca^2+ stores with thapsigargin” value in assay [1] is recorded as “completely blocked”. In addition, the “% Inhibition (decrease in Δ[Ca^2+]i)” value is on record as 100(100) % in assay [1] (U73122 (2 μM), 1 min); 100(100) % in assay [1] (U73122 (2 μM), 5 min); 100(100) % in assay [1] (setting [5]); 100(100) % in assay [1] (setting [7]); 70% in assay [1] (setting [9]); 85% in assay [1] (setting [13]). Also, the “[Ca^2+]i” value in assay [1] (setting [3]) is reported as 105 ± 3% of control (100%); in assay [1] (setting [4]), 100 ± 5% of control (100%); in assay [1] (setting [6]), 98 ± 2% of control (100%); in assay [1] (setting [8]), 100 ± 8% of control (100%); in assay [1] (setting [10]), 156 ± 8** nM; in assay [1] (setting [11]), 205 ± 10* nM. Moreover, the “[Ca^2+]i” value in assay [1] (setting [14]) is given as 146 ± 5 nM; in assay [1] (setting [15]), 164 ± 9* percent of control (100%). Besides, the “Δ[Ca^2+]i” value in assay [1] (setting [9]) turned out to be 21; in assay [1] (setting [12]), 70; in assay [1] (setting [13]), 11; in assay [1] (setting [16]) it was 64. Further, the “rapid (1 min) increase in cytosolic Ca^2+ after pretreatment with PLC inhibitors” value in assay [1] is on record as “totally blocked”. In assay [1], the “rapid (1 min) increase in cytosolic Ca^2+ after pretreatment with U73343” value is given as “not by U73343”. In addition, the “reduction of the induced [Ca^2+]i increase by VDCC blockers” value in assay [1] was 70%. Also, the “order of potency relative to 1,25(OH)2D3” value in assay [2] (10^−8 M, 72 hours) was determined as 1.9. For the same molecule, the “effectiveness on OC synthesis compared with the steroid hormone 1,25(OH)2D3” value in assay [2] was “more effective than the steroid hormone”. Moreover, the “stimulation of OC synthesis” value in assay [2] is “markedly stimulated OC synthesis in a dose-dependent fashion”.
